These are literature values, as cited in US20200138710A1, “COMPOSITIONS WITH PERMEATION ENHANCERS FOR DRUG DELIVERY” (Children's Medical Center Corporation, priority 2016, published 2020).

Broadly, the Log P is the decadic logarithm of the partition coefficient of the neutral form, usually between octanol and water. Take `CC[C@H]1OC(=O)[C@H](C)[C@@H](O[C@H]2C[C@@](C)(OC)[C@@H](O)[C@H](C)O2)[C@H](C)[C@@H](O[C@@H]2O[C@H](C)C[C@H](N(C)C)[C@H]2O)[C@](C)(O)C[C@@H](C)CN(C)[C@H](C)[C@@H](O)[C@]1(C)O` [Azithromycin]: the “Log P” value is listed as 4.02.

As for `CO/N=C(\C(=O)N[C@@H]1C(=O)N2C(C(=O)O)=C(CSc3nc(=O)c(=O)[nH]n3C)CS[C@H]12)c1csc(N)n1` [Ceftriaxone], the “Log P” value was −1.47. As for `CO/N=C(\C(=O)N[C@@H]1C(=O)N2C(C(=O)O)=C(COC(N)=O)CS[C@H]12)c1ccco1` [Cefuroxime], the “Log P” value is given as −0.16.
